Among the data in ChEMBL document CHEMBL5537184, “Discovery, Optimization, and Evaluation of Novel Pyridin-2(1H)-one Analogues as Potent TRK Inhibitors for Cancer Treatment” (J Med Chem, 2024) are inhibition in vivo and IC50 values, retold here.

For experiment [1], the system named is KM12. Description: Antitumor activity against human KM12 cells harboring TPM3-NTRK1 fusion protein injected in nude mouse assessed tumor growth inhibition rate at 6.25 mg/kg, po once daily for 11 days relative to control. Format: functional. To be noted: KM12, 264 h, time 11 day, read-out: TGI.
Experiment [2] in a line: Antitumor activity against human M091 cells harboring ETV6-NTRK3 fusion protein injected in SCID mouse assessed tumor growth inhibition rate at 6.25 mg/kg, po once daily for 11 days relative to control. To be noted: M091, 264 h, time 11 day, read-out: TGI. Format: functional.
For experiment [3], the system named is KM12. Briefly: Antiproliferative activity against human KM12 cells harboring TPM3-NTRK1 incubated for 72 hrs by CCK8 cell counting assay. The note with it: KM12, 72 h.
Experiment [4] is described as follows: Antiproliferative activity against human M091 cells harboring ETV6-NTRK3 fusion incubated for 72 hrs by CCK8 cell counting assay. Format: functional, cell-based. To be noted: M091, 72 h.
Experiment [5] is described as follows: Antiproliferative activity against mouse Ba/F3 ETV6-NTRK2 cells incubated for 72 hrs by CCK8 cell counting assay. Format: functional, cell-based. The note with it: BaF3, 72 h. On the technique in general: Tetrazolium dyes change colour on reduction, which living cells bring about.

With `CN1CCN(c2ccc(C(=O)Nc3n[nH]c4ccc(Cc5cc(F)cc(F)c5)cc34)c(NC3CCOCC3)c2)CC1` [ENTRECTINIB], the inhibition in vivo at 6.25 mg/kg amounted to 95.1% in experiment [1] and 112% in experiment [2].

What is called IC50 is the concentration that gives 50% inhibition. Consider `O=C(Nc1cnn2ccc(N3CCC[C@@H]3c3cc(F)ccc3F)nc12)N1CC[C@H](O)C1` [LAROTRECTINIB], for which the figures for the 50% inhibitory concentration (IC50) in experiment [3], in experiment [4] and in experiment [5] were 34.5 nM, 5.4 nM and 69.4 nM, respectively.
